Data taken from publication PMC12596731, “Cys–Lys stapling for unprotected peptides via tunable linkers” (National Science Review, 2025).

Test: Cys-Lys stapling of unprotected peptides with unsymmetrical linker (1.5 equiv): Cys thiol displaces phthalimide from N-thiophthalimide (disulfide, ~1 min), then ring closure by Lys amine attack on pentafluorophenyl ester with DIPEA (4 equiv)
Conditions: the molecule shown is the open-chain precursor, CH3CN:H2O 3:1, 25.0 °C, 0.167 h

SMILES: CC[C@H](C)[C@H](NC(=O)[C@@H]1CCCN1C(=O)[C@H](CSS/C(=C/Cl)CCCC(=O)Oc1c(F)c(F)c(F)c(F)c1F)NC(C)=O)C(=O)N[C@@H](CCSC)C(=O)N[C@@H](CCC(=O)O)C(=O)N[C@@H](CC(=O)O)C(=O)N[C@@H](CCCNC(=N)N)C(=O)N[C@@H](CCCCN)C(=O)N1CCC[C@H]1C(N)=O [Ac-Cys(S-linker 3b-OPfp)-Pro-Ile-Met-Glu-Asp-Arg-Lys-Pro-NH2]
- ring closure, isolated yield (35-membered ring): 81%

SMILES: CC[C@H](C)[C@H](NC(=O)[C@@H]1CCCN1C(=O)[C@H](CSS/C(=C/Cl)CCCCCC(=O)Oc1c(F)c(F)c(F)c(F)c1F)NC(C)=O)C(=O)N[C@@H](CCSC)C(=O)N[C@@H](CCC(=O)O)C(=O)N[C@@H](CC(=O)O)C(=O)N[C@@H](CCCNC(=N)N)C(=O)N[C@@H](CCCCN)C(=O)N1CCC[C@H]1C(N)=O [Ac-Cys(S-linker 3d-OPfp)-Pro-Ile-Met-Glu-Asp-Arg-Lys-Pro-NH2]
- ring closure, isolated yield (37-membered ring): 78%

SMILES: CC[C@H](C)[C@H](NC(=O)[C@@H]1CCCN1C(=O)[C@H](CSS/C(=C/Cl)COCC(=O)Oc1c(F)c(F)c(F)c(F)c1F)NC(C)=O)C(=O)N[C@@H](CCSC)C(=O)N[C@@H](CCC(=O)O)C(=O)N[C@@H](CC(=O)O)C(=O)N[C@@H](CCCNC(=N)N)C(=O)N[C@@H](CCCCN)C(=O)N1CCC[C@H]1C(N)=O [Ac-Cys(S-linker 3f-OPfp)-Pro-Ile-Met-Glu-Asp-Arg-Lys-Pro-NH2]
- ring closure, isolated yield (35-membered ring): 75%

SMILES: CC[C@H](C)[C@H](NC(=O)[C@@H]1CCCN1C(=O)[C@H](CSS/C(=C/Cl)CCOc1ccccc1C(=O)Oc1c(F)c(F)c(F)c(F)c1F)NC(C)=O)C(=O)N[C@@H](CCSC)C(=O)N[C@@H](CCC(=O)O)C(=O)N[C@@H](CC(=O)O)C(=O)N[C@@H](CCCNC(=N)N)C(=O)N[C@@H](CCCCN)C(=O)N1CCC[C@H]1C(N)=O [Ac-Cys(S-linker 3i-OPfp)-Pro-Ile-Met-Glu-Asp-Arg-Lys-Pro-NH2]
- ring closure, isolated yield (37-membered ring): 65%

SMILES: CC[C@H](C)[C@H](NC(=O)[C@@H]1CCCN1C(=O)[C@H](CSS/C(=C/Cl)CCOc1cccc(C(=O)Oc2c(F)c(F)c(F)c(F)c2F)c1)NC(C)=O)C(=O)N[C@@H](CCSC)C(=O)N[C@@H](CCC(=O)O)C(=O)N[C@@H](CC(=O)O)C(=O)N[C@@H](CCCNC(=N)N)C(=O)N[C@@H](CCCCN)C(=O)N1CCC[C@H]1C(N)=O [Ac-Cys(S-linker 3k-OPfp)-Pro-Ile-Met-Glu-Asp-Arg-Lys-Pro-NH2]
- ring closure, isolated yield (38-membered ring): 72%

SMILES: CC[C@H](C)[C@H](NC(=O)[C@@H]1CCCN1C(=O)[C@H](CSS/C(=C/Cl)CCOc1ccc(C(=O)Oc2c(F)c(F)c(F)c(F)c2F)cc1)NC(C)=O)C(=O)N[C@@H](CCSC)C(=O)N[C@@H](CCC(=O)O)C(=O)N[C@@H](CC(=O)O)C(=O)N[C@@H](CCCNC(=N)N)C(=O)N[C@@H](CCCCN)C(=O)N1CCC[C@H]1C(N)=O [Ac-Cys(S-linker 3m-OPfp)-Pro-Ile-Met-Glu-Asp-Arg-Lys-Pro-NH2]
- ring closure, isolated yield (39-membered ring): 62%

SMILES: CC(=O)N[C@@H](CCCCN)C(=O)N[C@@H](C)C(=O)N[C@@H](C)C(=O)N[C@@H](C)C(=O)N[C@@H](CSS/C(=C/Cl)CCC(=O)Oc1c(F)c(F)c(F)c(F)c1F)C(=O)N[C@@H](Cc1ccccc1)C(N)=O [Ac-Lys-Ala-Ala-Ala-Cys(S-linker 3a-OPfp)-Phe-NH2]
- ring closure, isolated yield (25-membered ring): 72%

SMILES: CC(=O)N[C@@H](CCCCN)C(=O)N[C@@H](C)C(=O)N[C@@H](C)C(=O)N[C@@H](C)C(=O)N[C@@H](CSS/C(=C/Cl)CCCC(=O)Oc1c(F)c(F)c(F)c(F)c1F)C(=O)N[C@@H](Cc1ccccc1)C(N)=O [Ac-Lys-Ala-Ala-Ala-Cys(S-linker 3b-OPfp)-Phe-NH2]
- ring closure, isolated yield (26-membered ring): 76%

SMILES: CC(=O)N[C@@H](CCCCN)C(=O)N[C@@H](C)C(=O)N[C@@H](C)C(=O)N[C@@H](C)C(=O)N[C@@H](CSS/C(=C/Cl)CCCCC(=O)Oc1c(F)c(F)c(F)c(F)c1F)C(=O)N[C@@H](Cc1ccccc1)C(N)=O [Ac-Lys-Ala-Ala-Ala-Cys(S-linker 3c-OPfp)-Phe-NH2]
- ring closure, isolated yield (27-membered ring): 79%
